Holding throughout (assay type): cell-based, human
The test system of assay [1] is IL-10. Description: IL-10 production by PBMC from patients with rheumatoid arthritis, CBA. As to conditions: 24 hours, mean ± standard error, n=8. The procedure: CBA protocol was followed according to the manufacturer's instructions. The election of microparticles was performed following the summary of Figure 1.
The acquisition on samples was performed with the BD FACS Array Bioanalyser System (FACSArray, Becton Dickinson, San José, CA, USA) and the analysis of the results was completed with the software FCAP Array (Becton Dickinson) in a PC computer.
Briefly, the experimental protocol consisted of a plate pre-washing out with Wash Buffer. After decantation, the mixture of capture microparticles was re-suspended in the vortex. Standards and samples were added in the adequate dilution. After permanent stirring incubation during 1 h, the PE detection reagent was added and incubated again during 2h at room temperature. After a washing-out, the acquisition was performed in the flow cytometer. Table 3. -Kit CBA Human Soluble Protein Multiplex Flex Set System.
On the other hand, PBMC (5 x 10^4 cells per well) from 8 patients with rheumatoid arthritis were cultured in duplicate in 200 µl of complete medium supplemented with the highest solvent concentration (10^-6 M), and 10^-6 M, 10^-7 M and 10^-8 M of compound 12 in the presence and absence of either LPS (10 µg/ml) or anti-CD3 (12.5 ng/ml), + anti-CD28 (1/3x10^5), during 24 hours. Culture supernatants were frozen at -20°C and IL-10 concentration was assayed by BD FACS Array Bioanalyser by using CBA Flex Set, specific to determine IL-10 concentration, following the manufacturer instructions.

In assay [2] the test system is CD62L. Description: Shedding of CD62L in lymphocytes of PBMC, flow cytometry. As to conditions: lymphocytes of PBMC from healthy volunteers, mean ± standard error, n=10, vehicle 112.68±13.57. The procedure: Direct immuno-fluorescence techniques of one colour with monoclonal antibodies phycoerythrin-labeled (PE) was used. PE is a fluorescent substance excitable with a 488 nm laser, which emits at 570 nm, and it is detectable and easily distinguishable by a flow cytometer. By using the antibody described in Table 1, a direct labelling was performed: PBMC labelling: the process consisted in a labelling using 96 well V bottom plates. In each well, 5 x 10^4 cells are located, and afterwards centrifugated at 400 xg during 5 minutes. After washing-out, cells are re-suspended and 5 µl of the corresponding monoclonal antibody are added. Cells are again re-suspended and the plate is incubated in darkness, during 20 minutes, at 4°C. Subsequently, 150 µl PBS are added and two wash-outs are performed. Finally, it is re-suspended in 150 µl PBS and collected in a cytometer tube, adding PBS up to a final volume of 0.3 ml. For the counting, a FACSCalibur flow cytometer equipped with argon laser tuned at 488 nm was used in order to induce phycoerythrin fluorescence. The equipment, apart from the fluorescence channels, also provided information about the size (FSC) and cellular complexity (SSC). […]
Table 14. -Mean fluorescence intensity of surface CD62L expression in lymphocytes. p values correspond to data with respect to the vehicle for each experimental condition.
For orientation: In flow cytometry, cells or beads pass a laser one at a time.

Assay [3] relates to PBMC from healthy volunteers. Kind of assay: Proliferative response of PBMC, 3[H]-Thymidine incorporation. As to conditions: n=8; 4 days culture; absence or presence of PHA 10 µg/ml, PHA 2 µg/ml plus IL-2 (25 IU/ml), or anti-CD3 (12.5 ng/ml) + anti-CD28 (1:320.000). The procedure: Faced against a mitogen stimulation, lymphocytes suffer a blastogenesis and cellular differentiation process. The method used to quantify the cellular proliferation was the assay of the incorporation of ^3[H]-Thymidine to the DNA de novo synthesized, and the emission of betha-radiation from the cellular cultures dried extracts (to which the tritiated base was added) was detected before its ending and harvesting. In the different experiments performed to study the proliferation, the purified cellular preparations were incubated in 96 microwells plain bottom plates at concentrations of 5 x 10^4 cells/well (200 µl final volume), in the presence of different concentrations of various mitogens with triplicate repetitions and along 4 days of culture.
The response to a specific stimuli depended on the density and cell type studied, as well as of the culture time and of the mitogenic agent concentration. […]
PBMC was cultured during 4 days (50.000 cells per well) at 37°C and 5 % CO2 atmosphere (Cell incubator HERA Cell 150, Thermoscientific, Thermoelectron, 63505 Lagenselbold, GE) in complete culture medium. […] The DNA-incorporated radioactive was quantified by using a betha particles counter Wallac Oy.

For `Cc1nc(OC2CCCC2)c(-c2ccc(S(C)(=O)=O)cc2)s1` [compound 12, 4-cyclopentyloxy-5-(4-methylsulfonyl-phenyl)-2-methylthiazole], the “IL-10 production in PMBC from patients with rheumatoid arthritis” value was 2787.12±416.91 (0.069) pg/mL in assay [1] (LPS (10µg/ml), 10^-6 M, vehicle 2388.64±300.00, p 0.069); 2597.85±513.19 (0.327) pg/mL in assay [1] (LPS (10µg/ml), 10^-7 M, vehicle 2388.64±300.00, p 0.327); 3000.00±400.00 (0.025) pg/mL in assay [1] (LPS (10µg/ml), 10^-8 M, vehicle 2388.64±300.00, p 0.025); 976.96±187.99 (0.484) pg/mL in assay [1] (anti-CD3 (12.5 ng/ml) + anti-CD28 (1/3x10^5), 10^-6 M, vehicle 836.39±189.09, p 0.484); 805.41±141.23 (1.000) pg/mL in assay [1] (anti-CD3 (12.5 ng/ml) + anti-CD28 (1/3x10^5), 10^-7 M, vehicle 836.39±189.09, p 1.000); 872.06±150.87 (0.674) pg/mL in assay [1] (anti-CD3 (12.5 ng/ml) + anti-CD28 (1/3x10^5), 10^-8 M, vehicle 836.39±189.09, p 0.674). The “IL-10 production in PMBC from patients with rheumatoid arthritis” value in assay [1] (medium, 10^-6 M, vehicle 452.69±107.47, p 0.674) is listed as 682.50±113.65 (0.674) pg/mL; in assay [1] (medium, 10^-7 M, vehicle 452.69±107.47, p 0.401), 798.92±144.46 (0.401) pg/mL; in assay [1] (medium, 10^-8 M, vehicle 452.69±107.47, p 0.263), 468.14±65.80 (0.263) pg/mL. Further, the “Mean fluorescence intensity of surface CD62L expression in lymphocytes (MFI)” value is 90.01±8.93 (0.47) in assay [2] (10^-6 M, p 0.47 as printed) and 116.90±11.02 (0.333) in assay [2] (10^-7 M, p 0.333). Further, the “proliferative response of the PBMC from healthy volunteers” value in assay [3] was “did not significantly modify”.

These data come from EP2135864A1, “5-(4-methanesulfonyl-phenyl)-thiazole derivatives for the treatment of acute and chronic inflammatory diseases” (FAES FARMA, S.A., priority 2008, dated 2009).
